These results are taken from patent US7691572B2, “Method and kit for detecting resistance to antiviral drugs” (priority 1998, dated 2010).

“And” between values parts separate entries of the source, which are not always exact repeats. Equal values may be shown once. Read-outs that look alike come from different tables or passages of the source. Bounds are passed on as bounds.

In assay [1] the test system is HIV-1 RT. The assay can be described thus: Amp-RT assay, AZT-TP and other NRTI-TPs, reference viruses. The assay is classed as biochemical.
Another assay deals with HIV-1 isolates. The settings on record: read-out: IC50 Culture, cited from earlier work.
For assay [2], the system named is HIV-1 RT.
Experimental: (§1) For culture supernatant, 10 μl were used directly in the Amp-RT assay. For plasma testing, a volume of 100 μl was clarified by centrifugation at 10,000 g for five minutes and then ultracentrifuged at a fixed angle at 99,000 g for 1 hour at 4° C. The viral pellet was resuspended in 100 μl of RT buffer (50 mM Tris-HCl, 50 mM KCl, 10 mM MgCl2). Ten microliter aliquots of virus pellets were applied to an RT buffer containing 10 ng of EMCV RNA template, 10 units of RNasin, 0.6% NP-40, 100 ng of the 5′-biotin-labeled EMCR2 antisense primer, 1 nM EGTA, 2 mM dithiothreitol, 50 mM Tris-HCl, 50 mM KCl, 10 mM MgCl2, and 400 uM of each dNTP. Reactions were incubated at 37° C. for 2 hours and then heated at 95° C. for five minutes to destroy RT activity. […] The conditions for PCR were 35 cycles at 95° C. for one minute, 55° C. for one minute, and 72° C. for one minute.
(§2) For quantitation of RT levels, a standard curve was generated by using known RT units from a reference HIV-1 stock (Virology Quality Assurance Laboratory, Rush-Presbyterian-St. Luke's Medical Center, Chicago, Ill.). […] All samples were tested within the linear range of the Amp-RT assay (from 10^−6 to 10^−10 units of RT activity). Samples which had levels of RT activity above the linear range of the assay, were further diluted in RT buffer and retested again. The minimum detectable level of HIV-1 RT activity by the Amp-RT in plasma is 10^−10 units, the equivalent of 1 HIV-1 particle of the reference virus used for quantitation. The results of Amp-RT signals were expressed as units of RT activity per milliliter of plasma and reflect the average of duplicate results.
Assay [3] concerns the target HIV-1 RT (Human immunodeficiency virus type 1 group M subtype B, UniProt P04585, M628L/L661V/V693A/T802Y). The settings on record: 50 μM; HIV-1RTMDR1/MT-2 (74V/41L/106A/215Y).
Experimental: as §1, §2
The target of another assay is plasma HIV-1 RT (Human immunodeficiency virus type 1, UniProt P04585). Particulars: 50 μM nevirapine.
The mark [4] stands for this setting: MNR HIV-1SUM12 (F77L, F116Y, Q151M).
The mark [5] stands for this setting: MNR HIV-1SUM13 (A62V, V75I, F77L, F116Y, Q151M).

Experimental for plasma HIV-1 RT: as §1, §2

For the molecule `Cc1cn([C@H]2C=C[C@@H](COP(=O)(O)OP(=O)(O)OP(=O)(O)O)O2)c(=O)[nH]c1=O` [d4T-TP], the IC50 (as a rule, the midpoint of a concentration-inhibition curve) with HIV-1 RT [1] (MNR HIV-1SUM8 (Q151M)) turned out to be 320 nM; in the assay on HIV-1 RT [1] (setting [4]), 370 nM; in the assay with HIV-1 RT [1] (setting [5]), 370 nM; in the assay with HIV-1 RT [1] (WT HIV-1LAI), 15 nM; in the assay on HIV-1 RT [1] (WT HIV-1SUM9), 55 nM. Further, the “fold resistance (IC50) as compared to the mean IC values of WT HIV-1” value (“fold resistance (IC50)” below) is “(9.1) fold” with HIV-1 RT [1] (MNR HIV-1SUM8 (Q151M)), “(10.6) fold” in the assay with HIV-1 RT [1] (setting [4]) and “(10.6) fold” in the assay with HIV-1 RT [1] (setting [5]).
Turning to `Nc1ncnc2c1ncn2[C@H]1CC[C@@H](COP(=O)(O)OP(=O)(O)OP(=O)(O)O)O1` [ddA-TP], the IC50 was 1200 nM with HIV-1 RT [1] (MNR HIV-1SUM8 (Q151M)); 1100 nM in the assay on HIV-1 RT [1] (setting [4]); 6000 nM in the assay with HIV-1 RT [1] (setting [5]); 270 nM in the assay on HIV-1 RT [1] (WT HIV-1SUM9); 100 nM with HIV-1 RT [1] (WT HIV-1xxBRUpitt). Further, the “fold resistance (IC50)” value in the assay on HIV-1 RT [1] (MNR HIV-1SUM8 (Q151M)) is “(6.5) fold”; in the assay on HIV-1 RT [1] (setting [4]), “(5.9) fold”; in the assay on HIV-1 RT [1] (setting [5]) it was “(32.4) fold”.
`Nc1ccn([C@H]2CC[C@@H](COP(=O)(O)OP(=O)(O)OP(=O)(O)O)O2)c(=O)n1` [ddC-TP, ddC-triphosphate]: the IC50 in the assay with HIV-1 RT [1] (MNR HIV-1SUM8 (Q151M)) came to 1800 nM; with HIV-1 RT [1] (setting [4]), 6000 nM; with HIV-1 RT [1] (setting [5]), 7500 nM; in the assay on HIV-1 RT [1] (WT HIV-1LAI) it was 500 nM; with HIV-1 RT [1] (WT HIV-1SUM9) it was 500 nM. The “fold resistance (IC50)” value in the assay on HIV-1 RT [1] (MNR HIV-1SUM8 (Q151M)) was “(3.6) fold”; in the assay on HIV-1 RT [1] (setting [4]) it was “(12) fold”; with HIV-1 RT [1] (setting [5]), “(15) fold”.
As to `Cc1ccnc2c1NC(=O)c1cccnc1N2C1CC1` [nevirapine], the IC50 in the assay with HIV-1 isolates (isolate S469-2/M3 (Y188L)) was 100000 nM; in the assay on HIV-1 isolates (isolate X165-6 (no mutations)) it was 70 nM; with HIV-1 isolates (isolate X267-1 (no mutations)) it was 40 nM. For the same molecule, the “inhibition of RT” value is “no significant inhibition” in the assay with HIV-1 RT [2] (50 μM nevirapine, isolate W786-6, 8.3×10^−9 units of RT activity); “no significant inhibition” in the assay on HIV-1 RT [2] (50 μM nevirapine, isolates X403-4 and W786-6, high or low input of RT). The “Inhibition of RT. (%)” value in the assay on HIV-1 RT [2] (50 μM nevirapine, isolate W786-6, input 5.6 × 10^−8 units) was 0%; in the assay on HIV-1 RT [2] (50 μM nevirapine, isolate X267-1, input 6.9 × 10^−9 units), “complete inhibition and 100%”; in the assay on HIV-1 RT [2] (50 μM nevirapine, isolate X267-1, input 7.1 × 10^−7 units), 98.6%; with HIV-1 RT [2] (50 μM nevirapine, isolate X267-1, input 7.1 × 10^−7 units, listed as Nevirapine) it was 98.7%; in the assay on HIV-1 RT [2] (50 μM nevirapine, isolate X267-1, input 7.2 × 10^−8 units) it was “complete inhibition and 100%”; in the assay with HIV-1 RT [2] (50 μM nevirapine, isolate X403-4, input 4.4 × 10^−7 units), 16%. In addition, the “Inhibition of RT. (%)” value is given as 0% in the assay on HIV-1 RT [2] (50 μM nevirapine, line under isolate X403-4, input 4.1 × 10^−7 units) and 0% in the assay with HIV-1 RT [2] (50 μM nevirapine, line under isolate X403-4, input 8.2 × 10^−9 units). The RT inhibition is on record as 94% in the assay with HIV-1 RT [2] (50 μM nevirapine, mixture 10% resistant (W786-6) and 90% sensitive (X267-1) viruses); 80% in the assay with HIV-1 RT [2] (50 μM nevirapine, mixture containing 25% resistant viruses); 29% in the assay with HIV-1 RT [2] (50 μM nevirapine, mixture containing 75% resistant viruses); more than 99% with HIV-1 RT [2] (50 μM nevirapine, sensitive isolate X267-1 alone); 100% at plasma HIV-1 RT (patient N06, after 7 days of treatment); 24% on plasma HIV-1 RT (patient N07, day 7 of treatment). The RT inhibition worked out at 94% at plasma HIV-1 RT (patient N12, after 7 days of treatment) and 32% at plasma HIV-1 RT (patient N12, day 14 of treatment). The “inhibition of RT activity” value with HIV-1 RT [2] (50 μM nevirapine, resistant isolates) was “little or no inhibition”. The “Inhibition of RT by Nevirapine” value in the assay with HIV-1 RT [2] (50 μM, HIV-1RTMC/MT-2 (67N/70R/215F/219Q), AZT-resistant) was determined as 91.8%; in the assay with HIV-1 RT [2] (50 μM, HIV-1RTMDR1/MT-2 (74V/41L/106A/215Y)), 43%; in the assay on HIV-1 RT [2] (50 μM, L6KL5 (103N/75I/77L/116Y/151M)), 7%; with HIV-1 RT [2] (50 μM, L6KL5 (103N/75I/77L/116Y/151M), listed as Nevirapine), 0%; in the assay on HIV-1 RT [2] (50 μM, M184V/Y181CEU (184V/181C)) it was 0%; in the assay with HIV-1 RT [2] (50 μM, M184Vpitt (184V), 3TC-resistant) it was 98.8%. For the same molecule, the “Inhibition of RT by Nevirapine” value is given as 0% in the assay on HIV-1 RT [2] (50 μM, N119 (181C)); 7% in the assay on HIV-1 RT [2] (50 μM, N119 (181C), listed as Nevirapine); “partially inhibited” at HIV-1 RT [3]. For the same molecule, the susceptibility to nevirapine entry with HIV-1 RT [2] (50 μM, viruses containing mutations associated with AZT or 3TC resistance) was “susceptible”. Further, the “Units of RT activity With 50 μM Nevirapine” value is 7.7 × 10^−8 Units of RT activity in the assay on HIV-1 RT [2] (isolate W786-6, 5.6 × 10^−8 without nevirapine); 9.1 × 10^−9 Units of RT activity in the assay on HIV-1 RT [2] (isolate X267-1, 7.1 × 10^−7 without nevirapine); 3.7 × 10^−7 Units of RT activity in the assay with HIV-1 RT [2] (isolate X403-4, 4.4 × 10^−7 without nevirapine); 5.0 × 10^−7 Units of RT activity in the assay with HIV-1 RT [2] (line under isolate X403-4, 4.1 × 10^−7 without nevirapine); 8.4 × 10^−9 Units of RT activity in the assay on HIV-1 RT [2] (line under isolate X403-4, 8.2 × 10^−9 without nevirapine). Also, the entries for the “mean RT inhibition” value at plasma HIV-1 RT (samples after more than two weeks of treatment), on plasma HIV-1 RT (samples collected before therapy (n=7)) and on plasma HIV-1 RT (samples of the first six days of treatment (n=14)) were 13.82%, 99.3% and 98.2%, respectively.
